From patent publication US20230091848A1, “DISEASE DETECTION AND TREATMENT BASED ON PHENYLACETYL GLUTAMINE LEVELS” (The Cleveland Clinic Foundation, priority 2020, published 2023)

Columns and labels:
[1] = test system: human platelet rich plasma (PRP); test: Platelet aggregometry in platelet rich plasma; format: cell-based; settings: inhibitor 10 μM; PAGln 100 μM; ADP 2 μM
Experimental: ADP (up to 4 μM), TRAP6 (up to 10 μM) and collagen (up to 1.0 μg/mL) were used as indicated to initiate aggregation with constant stirring (600 rpm).

[2] = test system: MEG01 cells; test: Dynamic mass redistribution (DMR) in MEG01 cells; format: cell-based, human
Experimental: Before proceeding for the experiments, cells were subjected to overnight incubation in reduced serum media opti-MEM. […] The cells were briefly centrifuged at room temperature at low speed (100 g for 10-15 sec) to allow settling down the cells at the bottom of the plate. After that, cells were allowed to temperature equilibrate for 1 h at room temperature prior to run DMR measurement. Firstly, basal DMR responses were graphed for around 15 min to obtain a baseline read that defines the zero level and also ensures the signal is stable. […] DMR response signal was recorded for 60-90 minutes post compound of interest addition.

[3] = molecular target: T1, α2B ADR (Homo sapiens, UniProt P18089); test: DMR in α2B-HEK293 (stable) cells; format: cell-based
T1 construct: expressed in transfected cells
T1 sequence (P18089 1-450): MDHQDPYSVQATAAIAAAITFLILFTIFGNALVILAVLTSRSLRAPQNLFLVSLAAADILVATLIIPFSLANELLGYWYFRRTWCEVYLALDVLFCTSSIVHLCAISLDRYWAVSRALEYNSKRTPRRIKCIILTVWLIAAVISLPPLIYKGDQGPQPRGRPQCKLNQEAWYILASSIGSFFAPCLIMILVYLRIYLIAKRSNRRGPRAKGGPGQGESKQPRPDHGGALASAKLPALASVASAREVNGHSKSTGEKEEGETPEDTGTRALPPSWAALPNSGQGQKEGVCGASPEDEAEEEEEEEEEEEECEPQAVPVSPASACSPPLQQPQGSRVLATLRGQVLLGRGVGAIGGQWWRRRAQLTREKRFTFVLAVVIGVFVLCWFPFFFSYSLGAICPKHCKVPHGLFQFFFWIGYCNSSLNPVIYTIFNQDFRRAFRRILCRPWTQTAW

[4] = molecular target: T2, α2A ADR (Homo sapiens, UniProt P08913); test: DMR in α2A-HEK293 (transient) cells; format: cell-based
T2 construct: DYK (FLAG, DYKDDDDK) (N); host or cells: HEK293 (transient, Lipofectamine 3000)
T2 sequence (P08913 1-465): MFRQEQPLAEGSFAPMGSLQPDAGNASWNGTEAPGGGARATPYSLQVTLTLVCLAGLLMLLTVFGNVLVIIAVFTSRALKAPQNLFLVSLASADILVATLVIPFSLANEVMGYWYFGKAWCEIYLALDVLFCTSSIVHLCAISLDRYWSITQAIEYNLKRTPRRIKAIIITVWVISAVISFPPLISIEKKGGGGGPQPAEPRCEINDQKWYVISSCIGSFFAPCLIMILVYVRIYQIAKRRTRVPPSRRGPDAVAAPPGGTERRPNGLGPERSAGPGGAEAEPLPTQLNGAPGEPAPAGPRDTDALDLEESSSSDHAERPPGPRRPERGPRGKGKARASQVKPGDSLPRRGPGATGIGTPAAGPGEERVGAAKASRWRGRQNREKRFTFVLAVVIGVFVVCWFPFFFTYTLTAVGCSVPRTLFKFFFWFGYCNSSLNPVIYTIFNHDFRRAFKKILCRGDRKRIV
Experimental: The cells were grown in DMEM (100 μL) media supplemented with FBS (10%), penicillin (100 U/mL) and streptomycin (100 μg/mL) in a humidified atmosphere at 37° C. in 5% CO2 for 1 day before proceeding for the DMR experiments. For gain of function studies of α2A ADR, parental HEK293 cells were transfected with pcDNA3.1(+)-N-DYK empty vector or with pcDNA3.1(+)-ADRA2A-N-DYK clone (clone id: OHu19050C-GenScript) using Lipofactamine 3000 Transfection kit-Invitrogen (Cat. L3000008). DMR studies were performed on transiently transfected cells after 2 days post transfection. Prior to run the DMR experiment, cells were washed with 1×HBSS buffer with HEPES (20 mM, pH 7.4) and allowed to temperature equilibrate for 1 h at room temperature in 100 μL of the same buffer. Basal DMR response were graphed for around 15 min to obtain a baseline read that defines the zero level and also ensures the signal is stable.

[5] = test system: FeCl3-induced carotid artery injury model; test: Carotid artery FeCl3 injury thrombosis assay; format: in vivo, mice; settings: carvedilol 1.5 g/kg for one week; PAGln i.p.
Experimental: Briefly, rhodamine 6G (100 μL; 0.5 mg/mL) was injected directly into the right jugular vein to label platelets. The left carotid artery was exposed and injured by placing a FeCl3-soaked filter paper for 1 minute. […] Time to cessation of blood flow through clot formation for all studies was determined by visual inspection by two different investigators. End points were set as cessation of blood flow for 30 seconds to 30 minutes.

[6] = test system: MEG01 cells; test: cAMP assay in MEG01 cells; format: cell-based, human; settings: pretreatment with modulator
Experimental: Real-time (RT) PCR in MEG01 cells: Total RNA was isolated from MEG01 cells following TRIZOL RNA isolation protocol post 40 h of siRNA transfection. […] Real time (RT) PCR was carried out following TaqMan Gene Expression Assays protocol using RT primers and probes of ADRA2A (assay Id Hs01099503_s1), ADRA2B (assay Id Hs00265081 s1) and ADRB2 (assay Id Hs00240532_s1) from ThermoFisher Scientific. cAMP assay in MEG01, Platelets and HEK293 cells: Intracellular cAMP levels were measured using CatchPoint Cyclic-AMP Fluorescent Assay Kit from molecular devices (Cat. R8089). Briefly, MEG01 cells were washed with 1×HBSS buffer with HEPES (20 mM; pH 7.4) and re-suspended in stimulation buffer (1×HBSS, HEPES (20 mM); pH 7.4, IBMX (0.5 mM), Rolipram (0.1 mM) and BSA (0.1%)). The cells were further seeded into 96 well cell culture plates with a density of ˜100 k cells per well in 100 μL stimulation buffer. Similarly, human washed platelets re-suspended very gently in stimulation buffer and seeded into a 96-well cell culture plates with ˜4-6 million platelets per well in 100 μL stimulation buffer. Both the MEG01 cells and platelets were kept thereafter at 37° C. incubator for 10 min before addition of the inhibitors or test compounds. Following incubation with stimulation buffer, 10 μL (10× concentration) of modulators/inhibitors (when necessary) were added and kept for 15 min at 37° C. […] The test compounds were made in buffer T (1×HBSS, HEPES (20 mM); pH 7.4, IBMX (0.5 mM) and Rolipram (0.1 mM)). The reaction was stopped by adding 50 μL of lysis buffer (provided in the kit CatchPoint Cyclic-AMP Fluorescent Assay Kit Cat. R8089-Molecular Devices), further added with IBMX (0.5 mM) and Rolipram (0.1 mM)) and agitated for 10 min in a plate shaker to facilitate cell lysis. Lysed cells are immediately proceeded to cAMP assay. For the quantification of cAMP, the lysed sample (40 μL), buffer control and cAMP calibrators were added in appropriate wells of a 96-well clear bottom, black wall cAMP assay plates (provided in the kit). Thereafter, reconstituted rabbit anti-cAMP antibody (40 μL) was added to all the wells and mix for 5 min on a plate shaker to ensure mixing. In the next step, reconstituted HRP-cAMP conjugate (40 μL) was added to every well, mixed properly and kept at room temperature for 2 h. The plate contents were aspirated thereafter and washed with wash buffer (300 μL (provided in the kit)) 4 times. Spotlight red substrate (provided in the kit) was added to each well minimizing the time between starting and finishing in dark. The plate was covered with aluminum foil and left at room temperature for at least 10 min before reading fluorescence intensity in a FlexStation 3 Multi-Mode Microplate Reader-Molecular devices. […] For cAMP assay in adherent cell lines, parental HEK293, and β2-HEK293 (stable) cells were seeded into 96-well cell culture microplates with approximately 50 k cells per well in DMEM (100 μL) media supplemented with FBS (10%), penicillin (100 U/mL) and streptomycin (100 μg/mL) in a humidified atmosphere at 37° C. in 5% CO2. Cells were grown for 24 h before proceeding for cAMP experiment following similar method as described for MEG01 cells. Intracellular Ca^2+ measurement: Intracellular Ca^2+ in MEG01, HEL92.1.7, parental HEK293, β2-HEK293 (stable) cells, empty vector (EV) transfected HEK293 cells, ADRA2A transfected HEK293 cells and in α2B-HEK293 stable cells was measured using FLIPR Calcium 5 Assay Kit-Molecular devices (Cat. R8186). […]

[7] = test system: washed human platelets; test: cAMP assay in washed human platelets; format: cell-based; settings: pretreatment with modulator
Experimental: Real-time (RT) PCR in MEG01 cells: Total RNA was isolated from MEG01 cells following TRIZOL RNA isolation protocol post 40 h of siRNA transfection. […] Real time (RT) PCR was carried out following TaqMan Gene Expression Assays protocol using RT primers and probes of ADRA2A (assay Id Hs01099503_s1), ADRA2B (assay Id Hs00265081 s1) and ADRB2 (assay Id Hs00240532_s1) from ThermoFisher Scientific. cAMP assay in MEG01, Platelets and HEK293 cells: Intracellular cAMP levels were measured using CatchPoint Cyclic-AMP Fluorescent Assay Kit from molecular devices (Cat. R8089). Briefly, MEG01 cells were washed with 1×HBSS buffer with HEPES (20 mM; pH 7.4) and re-suspended in stimulation buffer (1×HBSS, HEPES (20 mM); pH 7.4, IBMX (0.5 mM), Rolipram (0.1 mM) and BSA (0.1%)). The cells were further seeded into 96 well cell culture plates with a density of ˜100 k cells per well in 100 μL stimulation buffer. Similarly, human washed platelets re-suspended very gently in stimulation buffer and seeded into a 96-well cell culture plates with ˜4-6 million platelets per well in 100 μL stimulation buffer. Both the MEG01 cells and platelets were kept thereafter at 37° C. incubator for 10 min before addition of the inhibitors or test compounds. Following incubation with stimulation buffer, 10 μL (10× concentration) of modulators/inhibitors (when necessary) were added and kept for 15 min at 37° C. […] For the quantification of cAMP, the lysed sample (40 μL), buffer control and cAMP calibrators were added in appropriate wells of a 96-well clear bottom, black wall cAMP assay plates (provided in the kit). […] The plate was covered with aluminum foil and left at room temperature for at least 10 min before reading fluorescence intensity in a FlexStation 3 Multi-Mode Microplate Reader-Molecular devices. […] Intracellular Ca^2+ measurement: Intracellular Ca^2+ in MEG01, HEL92.1.7, parental HEK293, β2-HEK293 (stable) cells, empty vector (EV) transfected HEK293 cells, ADRA2A transfected HEK293 cells and in α2B-HEK293 stable cells was measured using FLIPR Calcium 5 Assay Kit-Molecular devices (Cat. R8186). […]

[8] = vs parental HEK293, PAGln 100 μM, B-HT933 50 μM

COC1(C2=NCCN2)COc2ccccc2O1 (stereo not drawn) [RX821002]
PAGln induced hyperresponsiveness of platelet aggregation [1]: attenuated the PAGln induced hyperresponsiveness
DMR response to ATP after ADR inhibitors ([2]; ATP 50 μM, inhibitor 10 μM): remained unchanged
DMR response of B-HT933 after ADR inhibitor ([2]; B-HT933 50 μM, inhibitor 10 μM): appropriately inhibited
PAGln-induced DMR response after ADR inhibitors ([2]; PAGln 100 μM, inhibitor 10 μM, 30 min): substantially reduced
B-HT933-elicited DMR response after ADR inhibitor [3]: attenuated by RX821002
PAGln-induced DMR response after ADR inhibitor ([3]; inhibitor 10 μM, 30 min): reversed
B-HT933-elicited DMR response after ADR inhibitor [4]: attenuated by RX821002
PAGln-induced DMR response after ADR inhibitor ([4]; inhibitor 10 μM, 30 min): reversed

N[C@@H](Cc1ccccc1)C(=O)O [phenylalanine]
DMR response ([2]; addition of ligand): displayed no DMR response

COc1ccccc1OCCNCC(O)COc1cccc2[nH]c3ccccc3c12 (stereo not drawn) [carvedilol]
pro-thrombotic effect of PAGln on clot formation rate and occlusion time [5]: reversed by pretreatment of mice with carvedilol

CCN1CCc2nc(N)oc2CC1 [B-HT933]
agonist-evoked DMR response [3, 8]: elevated B-HT933-elicited DMR response
agonist-evoked DMR response [4, 8]: elevated B-HT933-elicited DMR response

CN=c1nc(-c2ccccc2)n(-c2ccccc2)s1 [SCH-202676]
PAGln-induced DMR response after G-protein modulators ([2]; PAGln 100 μM, PTX 100 ng/mL, CTX 1 μg/mL, YM-254890 0.5 μM, SCH-202676 1 μM): significantly reduced
PAGln-evoked cAMP production after GPCR modulators [6]: inhibited PAGln-evoked cAMP production
PAGln-evoked cAMP production after GPCR modulators [7]: inhibited PAGln-evoked cAMP production
